Columns and labels:
[1] = tested on: monkey CEA expressed on CHO cell surface (cynoCEA-CHO); experiment: FACS binding assay, cynoCEA-CHO cells; design: species or system cynomolgus monkey; settings: Table 17, humanized antibodies and controls
Experimental: In order to detect the binding of the antibody to the CEA protein on the cell surface, the binding activity of the antibody was determined by FACS using cells expressing CEA on the cell surface. Cells were harvested and centrifuged at 400 g at 4° C. for 5 min. Pre-cooled PBS containing FBS at final concentration 10% was added, and the mixture was centrifuged at 400 g at 4° C. for 5 min; the procedures were repeated twice. […] The plate was incubated at 4° C. for 60 min and centrifuged, and the supernatant was removed. 250 μL of pre-cooled PBS containing FBS at final concentration 10% was added to each well to resuspend the cells, and the suspension was centrifuged at 400 g at 4° C. for 5 min, followed by the removal of the supernatant; the procedures were repeated twice. 50 μL of 1:200 diluted secondary antibody Alexa Fluor@488 goat anti-human IgG (H+L) (Lifetechologies, Cat #A11013) was added. The plate was incubated in the dark at 4° C. for 45 min and centrifuged, and the supernatant was removed. 250 μL of pre-cooled PBS containing FBS at final concentration 10% was added to each cell to resuspend the cells, and the suspension was centrifuged at 400 g at 4° C. for 5 min; the procedures were repeated twice. 100 μL of pre-cooled PBS was added to each well to resuspend the cells. The plate was analyzed by a flow cytometer (BD, FACSverse) for fluorescence signal values.

[2] = molecular target: T1, human CEACAM1 expressed on CHO cell surface (CEACAM1-CHO) (Homo sapiens, UniProt P13688); experiment: FACS binding assay, CEACAM1-CHO cells; settings: Table 17, humanized antibodies and controls
T1 construct: expressed in transfected cells; host or cells: CHO cells
T1 sequence (P13688 35-526): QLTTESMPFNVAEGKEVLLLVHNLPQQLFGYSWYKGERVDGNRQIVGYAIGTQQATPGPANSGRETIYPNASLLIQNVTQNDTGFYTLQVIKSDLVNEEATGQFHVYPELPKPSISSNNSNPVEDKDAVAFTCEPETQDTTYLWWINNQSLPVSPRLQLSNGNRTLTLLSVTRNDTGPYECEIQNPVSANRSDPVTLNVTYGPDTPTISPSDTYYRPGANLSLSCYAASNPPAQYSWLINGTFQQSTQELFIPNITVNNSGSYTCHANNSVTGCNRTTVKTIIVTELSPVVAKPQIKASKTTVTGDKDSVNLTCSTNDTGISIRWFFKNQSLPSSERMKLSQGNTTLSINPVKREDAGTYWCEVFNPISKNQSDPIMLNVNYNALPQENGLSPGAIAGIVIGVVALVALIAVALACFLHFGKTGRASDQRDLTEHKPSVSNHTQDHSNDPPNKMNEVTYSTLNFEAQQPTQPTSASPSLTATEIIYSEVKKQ
Experimental: In order to detect the binding of the antibody to the CEA protein on the cell surface, the binding activity of the antibody was determined by FACS using cells expressing CEA on the cell surface. Cells were harvested and centrifuged at 400 g at 4° C. for 5 min. Pre-cooled PBS containing FBS at final concentration 10% was added, and the mixture was centrifuged at 400 g at 4° C. for 5 min; the procedures were repeated twice. The cells were seeded into a 96-well plate at 10^5 cells/well, and 100 μL of gradient diluted antibody solution was added to each well. The plate was incubated at 4° C. for 60 min and centrifuged, and the supernatant was removed. 250 μL of pre-cooled PBS containing FBS at final concentration 10% was added to each well to resuspend the cells, and the suspension was centrifuged at 400 g at 4° C. for 5 min, followed by the removal of the supernatant; the procedures were repeated twice. 50 μL of 1:200 diluted secondary antibody Alexa Fluor@488 goat anti-human IgG (H+L) (Lifetechologies, Cat #A11013) was added. The plate was incubated in the dark at 4° C. for 45 min and centrifuged, and the supernatant was removed. 250 μL of pre-cooled PBS containing FBS at final concentration 10% was added to each cell to resuspend the cells, and the suspension was centrifuged at 400 g at 4° C. for 5 min; the procedures were repeated twice. 100 μL of pre-cooled PBS was added to each well to resuspend the cells. The plate was analyzed by a flow cytometer (BD, FACSverse) for fluorescence signal values. Higher values indicate higher binding activity of the antibody to the protein on the cell surface. Binding curves were plotted using PRISM analysis software based on the assay results, and the EC50 values for the binding activity of the antibody to the cell surface proteins human CEA (MKN45 human gastric cancer cells, Nanjing Kebai Biotechnology Co., Ltd., Cat #CBP60488), cynoCEA-CHO and CEACAM1-CHO were obtained by fitting.

[3] = molecular target: T2, human soluble CEA (Homo sapiens, UniProt P06731); experiment: Affinity of antibodies for soluble CEA using Biacore; assay type: binding; settings: 1:1 Langmuir
T2 construct: His6 (C); made in house; host or cells: 293E cells
T2 sequence (P06731 with tags, fused parts or gaps): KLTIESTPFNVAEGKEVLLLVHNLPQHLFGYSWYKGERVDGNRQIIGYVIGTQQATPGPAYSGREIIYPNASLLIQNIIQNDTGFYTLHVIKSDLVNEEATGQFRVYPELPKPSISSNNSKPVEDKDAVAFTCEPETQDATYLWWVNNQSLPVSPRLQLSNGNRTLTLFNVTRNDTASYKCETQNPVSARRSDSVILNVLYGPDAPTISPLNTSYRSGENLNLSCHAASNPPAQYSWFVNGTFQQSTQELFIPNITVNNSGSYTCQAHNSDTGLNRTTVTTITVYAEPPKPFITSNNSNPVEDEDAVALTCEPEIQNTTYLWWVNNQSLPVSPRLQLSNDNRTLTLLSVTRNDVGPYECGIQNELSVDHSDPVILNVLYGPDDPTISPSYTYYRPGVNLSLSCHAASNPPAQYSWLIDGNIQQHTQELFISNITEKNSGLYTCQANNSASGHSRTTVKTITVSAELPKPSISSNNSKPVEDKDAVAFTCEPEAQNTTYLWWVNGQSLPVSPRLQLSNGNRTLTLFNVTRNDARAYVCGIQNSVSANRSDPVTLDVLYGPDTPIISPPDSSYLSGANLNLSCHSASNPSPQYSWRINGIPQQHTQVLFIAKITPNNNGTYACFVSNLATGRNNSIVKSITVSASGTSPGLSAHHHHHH
Experimental: The affinity of a test humanized antibody for human and monkey soluble CEA was determined using a Biacore (GE, T200) instrument. According to the method in the instructions of a human antibody capture kit (GE, Cat #BR-1008-39), the human antibody capture antibody was covalently conjugated to a biosensor chip CM5 (GE, Cat #BR-1005-30) of the Biacore instrument to affinity-capture a certain amount of the test antibody, then a series of concentration gradients of soluble CEA antigens were allow to flow through the surface of the chip, and reaction signals were detected in real time using Biacore, so that an association and dissociation curve was obtained. After each cycle of dissociation was completed, the biochip was washed and regenerated with a regeneration solution prepared in the human antibody capture kit. The data obtained from the experiment were fitted with the (1:1) Langmuir model using BIAevaluation version 4.1 software to obtain affinity values.

[4] = tested on: MKN45 (with high CEA expression); experiment: Cytotoxicity of ADCs, Cell Titer-Glo, MKN45; assay type: cell-based, human; settings: for IC50: 5 days
Experimental: (§1) Following conjugation of humanized CEA antibodies to toxin 2-A, cytotoxicity of each ADC to cancer cell lines with different CEA expression levels was evaluated. The CEA-highly expressing cells MKN45, the CEA-moderately expressing cells LS174T and the CEA-expressing negative cells HCT116 were plated in 96-well plates; gradient-diluted ADC samples were added to the cells the next day, and the cells were cultured at 37° C. for 5 days. 50 μL of Cell Titer-Glo reagent (Promega, Cat #G9242) was added to each well, and after incubation for 10 min in the dark, the luminescence signals were detected by a cell imaging detector (BioTek, Cytation5). An inhibition curve was plotted with the detection results using PRISM analysis software, and fitted to obtain an IC50 value of the inhibitory activity of the ADC against cell proliferation.

[5] = tested on: LS174T (with moderate CEA expression); experiment: Cytotoxicity of ADCs, Cell Titer-Glo, LS174T; assay type: cell-based; settings: for IC50: 5 days
Experimental: as §1

[6] = tested on: HCT116 (without CEA expression); experiment: Cytotoxicity of ADCs, Cell Titer-Glo, HCT116; assay type: cell-based; settings: for IC50: 5 days
Experimental: as §1

[7] = tested on: MKN45 and HCT116 co-cultured; experiment: Bystander effect and cytotoxicity, MKN45 and HCT116 co-cultured; assay type: cell-based; settings: ADC 4 nM, 5 days, FIG. 2
Experimental: (§2) In order to evaluate the bystander effect and cytotoxicity of the ADC, the CEA-highly expressing cell line MKN45 and the CEA-expressing negative cell line HCT116 were cultured in a 6-well cell culture plate for 24 h, and then an ADC sample was added at a final concentration of 4 nM. The cells were cultured in a cell incubator at 37° C. for another 5 days.
(§3) The cells were digested with pancreatin and collected, and CEA Monoclonal Antibody FITC (ThermoFisher, Cat #MA1-80578) was added at a final concentration of 10 μg/mL. The cells were incubated on ice in the dark for 1 h, washed twice with PBS, and counted using a flow cytometer.

[8] = tested on: HCT116 cultured alone; experiment: Bystander effect test, HCT116 cultured alone; assay type: cell-based; settings: ADC 4 nM, 5 days, FIG. 2
Experimental: as §2, §3

[9] = tested on: LS174T xenograft tumor model; experiment: In vivo inhibitory activity against tumors, LS174T xenograft; design: species or system BALB/c nude mice
Experimental: (§4) The in vivo efficacy of the ADC molecules was evaluated using LS174T and MKN45 xenograft tumor models. BALB/c nude mice (SPF grade, Shanghai Slac Laboratory Animal Co., Ltd., certificate no.: 201833814, license no.: SCXK (Jiangsu) 2016-0010) were housed in a 12/12 hour light/dark cycle at a temperature of 23±1° C. with humidity at 40-50%, with food (standard sterilized feed for mice) and water ad libitum. The mice were acclimatized for 10 days in a laboratory environment before the start of the experiment and then inoculated subcutaneously on the right flank with LS174T cells (5×10^5 cells/mouse) or MKN45 cells (4×10^6 cells/mouse). Tumors were allowed to grow to a size of about 150 mm^3, and then the mice were randomized into groups of 8. After grouping, the mice in the experimental groups were intraperitoneally injected with ADC samples in a dose of 1 mg/kg or 3 mg/kg, and those in the blank control group were intraperitoneally injected with PBS, only once. The sizes of the tumors on the mice were observed, measured and recorded.

[10] = tested on: MKN45 xenograft tumor model; experiment: In vivo inhibitory activity against tumors, MKN45 xenograft; design: species or system BALB/c nude mice
Experimental: as §4

[11] = ADC batches of high DAR (6.29-7)
[12] = ADC batches of low DAR (3.97-4.8)

Chain of monkey CEA expressed on CHO cell surface (cynoCEA-CHO) (as listed by the source): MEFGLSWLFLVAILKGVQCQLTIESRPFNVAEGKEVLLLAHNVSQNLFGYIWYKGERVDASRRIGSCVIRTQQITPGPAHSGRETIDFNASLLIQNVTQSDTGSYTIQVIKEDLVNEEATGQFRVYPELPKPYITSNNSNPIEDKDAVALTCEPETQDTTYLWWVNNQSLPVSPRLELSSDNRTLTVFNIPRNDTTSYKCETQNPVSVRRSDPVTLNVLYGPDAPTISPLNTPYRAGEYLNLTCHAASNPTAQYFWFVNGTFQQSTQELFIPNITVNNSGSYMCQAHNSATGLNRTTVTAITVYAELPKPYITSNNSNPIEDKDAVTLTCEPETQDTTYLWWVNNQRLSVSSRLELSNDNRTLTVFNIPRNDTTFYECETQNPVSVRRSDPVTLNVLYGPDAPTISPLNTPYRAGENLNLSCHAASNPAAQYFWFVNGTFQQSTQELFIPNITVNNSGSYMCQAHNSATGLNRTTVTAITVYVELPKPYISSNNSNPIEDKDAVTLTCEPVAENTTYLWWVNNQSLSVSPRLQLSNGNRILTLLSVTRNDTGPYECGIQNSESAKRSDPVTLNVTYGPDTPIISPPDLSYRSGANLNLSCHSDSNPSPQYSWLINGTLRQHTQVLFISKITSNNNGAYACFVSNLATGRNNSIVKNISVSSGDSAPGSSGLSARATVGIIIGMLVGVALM

Question: With Lmab [reference compound] as the substance, how does the “EC50 (nM) cynoCEA-CHO” value [1] read?
Answer: Its value is “No binding”.

Question: And the “EC50 (nM) CEACAM1-CHO” value [2]?
Answer: The value was “No binding”.

Question: And the “ka” value [3]?
Answer: The value was 55800 M⁻¹ s⁻¹.

Question: And the “kd” value [3]?
Answer: Its value is 0.000331 s⁻¹.

Question: With “Lmab-CL2A-SN38: control ADC: toxin CL2A-SN38 conjugated to Lmab (labetuzumab)” as the substance, how does the IC50 [4, 11] read?
Answer: Its IC50 is 0.665 nM.

Question: What about the IC50 [4, 12] of the same substance?
Answer: The IC50 was 1.59 nM.

Question: And the “IC50 ratio HCT116/MKN45” value [4, 11]?
Answer: Its value is 0.64.

Question: And the “IC50 ratio HCT116/MKN45” value [4, 12]?
Answer: The value was 0.66.

Question: What about the IC50 [5, 11] of the same substance?
Answer: The IC50 was 0.346 nM.

Question: And the IC50 [5, 12]?
Answer: The IC50 was 0.662 nM.

Question: And the “IC50 ratio HCT116/LS174T” value [5, 11]?
Answer: The value was 1.24.

Question: And the “IC50 ratio HCT116/LS174T” value [5, 12]?
Answer: The value was 1.60.

Question: And the IC50 [6, 11]?
Answer: Its IC50 is 0.428 nM.

Question: And the IC50 [6, 12]?
Answer: The IC50 was 1.06 nM.

Question: What about the “dependence of cytotoxicity on CEA expression level” value ([6]; MKN45, LS174T and HCT116 compared) of the same substance?
Answer: The value was “non-specific cytotoxicity”.

Question: What about the “bystander effect and cytotoxicity” value [7] of the same substance?
Answer: Its value is “very toxic”.

Question: And the “toxicity to HCT116 cultured alone” value [8]?
Answer: The value was “very toxic”.

Question: And the “Tumor inhibition rate (%)” value ([9]; 3 mpk, intraperitoneal, only once)?
Answer: The value was 33.44%.

Question: What about the “effect on tumor volume” value ([9]; FIG. 3, ranking among the 3-mpk groups) of the same substance?
Answer: The value was “the worst inhibitory effect on tumors”.

Question: And the “effect on tumor weight” value ([9]; FIG. 4, last day, ranking among the 3-mpk groups)?
Answer: Its value is “the worst inhibitory effect on tumors”.

Question: What about the “Tumor inhibition rate (%)” value ([10]; 3 mpk, intraperitoneal, only once, 3 mg/kg) of the same substance?
Answer: Its value is 13.51%.

Question: What about the “effect on tumor volume” value ([10]; FIG. 5, ranking among the 3-mpk groups) of the same substance?
Answer: The value was “the worst inhibitory effect on tumors”.

Question: What about the “effect on tumor weight” value ([10]; FIG. 6, last day, ranking among the 3-mpk groups) of the same substance?
Answer: Its value is “the worst inhibitory effect on tumors”.

— patent US12728168B2, “Anti-CEA antibody-exatecan analog conjugate and pharmaceutical use thereof” (JIANGSU HENGRUI MEDICINE CO., LTD., priority 2019, dated 2026)
